Reference: article PMC4700511 (Biochemistry, 2015)
Values after ≈ are worked out from the molar mass of the structure shown.

Assays:
VIM-24 [1] = biological target: T1, VIM-24 (Escherichia coli, UniProt Q5U7L7, R205L); assay: BTZ inhibition kinetics of nitrocefin hydrolysis by VIM-24; format: biochemical, Klebsiella pneumoniae; settings: for Ki: overall dissociation constant from vs, slow binding model
VIM-2 [2] = biological target: T2, VIM-2 (Escherichia coli, UniProt Q5U7L7); assay: BTZ inhibition kinetics of nitrocefin hydrolysis by VIM-2; format: biochemical, P. aeruginosa; settings: for Ki: overall dissociation constant from vs, slow binding model
MBLs = assay: Inhibitory activity toward MBLs after prolonged exposure to oxidative conditions; format: biochemical; settings: assays in solution; data not shown
E. coli pBC SK(−) = assay: MIC by agar dilution, E. coli DH10B with empty pBC SK; format: cell-based; settings: Escherichia coli
[3] = tested on: E. coli DH10B pBCSK(−) producing R228M; assay: MIC by agar dilution, E. coli DH10B pBCSK; format: cell-based; settings: Escherichia coli
[4] = tested on: E. coli DH10B pBCSK(−) producing R228Y; assay: MIC by agar dilution, E. coli DH10B pBCSK; format: cell-based; settings: Escherichia coli
[5] = tested on: E. coli DH10B pBCSK(−) producing R228P; assay: MIC by agar dilution, E. coli DH10B pBCSK; format: cell-based; settings: Escherichia coli
[6] = tested on: E. coli DH10B pBCSK(−) producing R228X (other variants); assay: MIC by agar dilution, E. coli DH10B pBCSK; format: cell-based; settings: Escherichia coli, R228X: range of MIC values of the other variants; MHA
[7] = tested on: E. coli DH10B pBCSK(−) producing VIM-2 (228R); assay: MIC by agar dilution, E. coli DH10B pBCSK; format: cell-based; settings: Escherichia coli
[8] = tested on: E. coli DH10B pBCSK(−) producing R228K; assay: MIC by agar dilution, E. coli DH10B pBCSK; format: cell-based; settings: Escherichia coli
[9] = tested on: E. coli DH10B pBCSK(−) producing VIM-24 (R228L); assay: MIC by agar dilution, E. coli DH10B pBCSK; format: cell-based; settings: Escherichia coli
[10] = tested on: E. coli DH10B pBCSK(−) producing R228Q; assay: MIC by agar dilution, E. coli DH10B pBCSK; format: cell-based; settings: Escherichia coli
VIM-24 [11] = biological target: T1, VIM-24; assay: Hydrolysis of cefepime and ceftazidime by periplasm preparations, VIM-24; format: biochemical, Klebsiella pneumoniae; settings: VIM-24 periplasmic preparation; 800 μM cefepime
VIM-2 [12] = biological target: T2, VIM-2; assay: Hydrolysis of cefepime and ceftazidime by periplasm preparations, VIM-2; format: biochemical, P. aeruginosa; settings: VIM-2 periplasmic preparation; 800 μM cefepime
[13] = rate constant for formation of E*I

## O=C(O)[C@H]1CS[C@@H]2CS[C@@H](CS)N12 [D-CS319]
VIM-24 [1]
  Ki: 0.64 ± 0.01 µM
VIM-24 [1]; rate constant for breakdown of E*I
  k−2: (0.004 ± 1) × 10^−3 s^−1
VIM-24 [1]; [13]
  k2: (0.07 ± 4) × 10^−3 s^−1
VIM-2 [2]
  Ki: 0.18 ± 0.02 µM
VIM-2 [2]; [13]
  k2: (0.01 ± 1) × 10^−3 s^−1

## O=C(O)[C@@H]1CS[C@H]2CS[C@H](CS)N21 [L-CS319]
VIM-24 [1]
  Ki: 0.12 ± 0.02 µM
VIM-2 [2]
  Ki: 0.04 ± 0.01 µM
MBLs
  effect of prolonged exposure to oxidative conditions on inhibitory activity: abolishes the inhibitory activity

## CC1(C)S[C@@H]2[C@H](NC(=O)[C@H](N)c3ccccc3)C(=O)N2[C@H]1C(=O)O [ampicillin]
E. coli pBC SK(−); MHA
  MIC: 4 mg/L (≈ 11.4 µM)
[3]; MHA
  MIC: 1020 mg/L (≈ 2930 µM)
[4]; MHA
  MIC: 1020 mg/L (≈ 2930 µM)
[5]; MHA
  MIC: 32 mg/L (≈ 91.6 µM)
[6]
  MIC: 64 to 512 mg/L (≈ 183 to 1470 µM)
[7]; MHA
  MIC: 512 mg/L (≈ 1470 µM)
[8]; MHA
  MIC: 32 mg/L (≈ 91.6 µM)
[9]; MHA
  MIC: 512 mg/L (≈ 1470 µM)
[10]; MHA
  MIC: 1020 mg/L (≈ 2930 µM)

## C[C@H]1[C@H](NC(=O)/C(=N\OC(C)(C)C(=O)O)c2csc(N)n2)C(=O)N1S(=O)(=O)O [aztreonam]
E. coli pBC SK(−); MHA
  MIC: ≤ 0.125 mg/L
[3]; MHA
  MIC: ≤ 0.125 mg/L
[4]; MHA
  MIC: ≤ 0.125 mg/L
[5]; MHA
  MIC: ≤ 0.125 mg/L
[6]
  MIC: ≤ 0.125 mg/L
[7]; MHA
  MIC: ≤ 0.125 mg/L
[8]; MHA
  MIC: ≤ 0.125 mg/L
[9]; MHA
  MIC: ≤ 0.125 mg/L
[10]; MHA
  MIC: ≤ 0.125 mg/L

## CO/N=C(\C(=O)N[C@@H]1C(=O)N2C(C(=O)[O-])=C(C[N+]3(C)CCCC3)CS[C@H]12)c1csc(N)n1 [cefepime]
E. coli pBC SK(−); MHA
  MIC: 0.03 mg/L (≈ 0.0624 µM)
E. coli pBC SK(−); MHA + 5 μM EDTA
  MIC: ≤ 0.25 mg/L
E. coli pBC SK(−); MHA + 250 μM Zn^2+
  MIC: ≤ 0.25 mg/L
[3]; MHA
  MIC: 2 mg/L (≈ 4.16 µM)
[3]; MHA + 5 μM EDTA
  MIC: 4 mg/L
[3]; MHA + 250 μM Zn^2+
  MIC: 2 mg/L
[4]; MHA
  MIC: 8 mg/L (≈ 16.6 µM)
[4]; MHA + 5 μM EDTA
  MIC: 8 mg/L
[4]; MHA + 250 μM Zn^2+
  MIC: 8 mg/L
VIM-24 [11]
  rate of hydrolysis (initial velocity) in periplasm: 5.3e-07 M/s
[5]; MHA
  MIC: 0.25 mg/L (≈ 0.52 µM)
[5]; MHA + 5 μM EDTA
  MIC: ≤ 0.25 mg/L
[5]; MHA + 250 μM Zn^2+
  MIC: 0.5 mg/L
[6]
  MIC: 1 to 4 mg/L (≈ 2.08 to 8.32 µM)
[7]; MHA
  MIC: ≤ 0.5 mg/L
[7]; MHA + 5 μM EDTA
  MIC: 0.5 mg/L
[7]; MHA + 250 μM Zn^2+
  MIC: 0.5 mg/L
[8]; MHA
  MIC: 0.5 mg/L (≈ 1.04 µM)
[8]; MHA + 5 μM EDTA
  MIC: ≤ 0.25 mg/L
[8]; MHA + 250 μM Zn^2+
  MIC: ≤ 0.25 mg/L
[9]; MHA
  MIC: 4 mg/L (≈ 8.32 µM)
[9]; MHA + 5 μM EDTA
  MIC: 4 mg/L
[9]; MHA + 250 μM Zn^2+
  MIC: 4 mg/L
[10]; MHA
  MIC: 16 mg/L (≈ 33.3 µM)
[10]; MHA + 5 μM EDTA
  MIC: 16 mg/L
[10]; MHA + 250 μM Zn^2+
  MIC: 32 mg/L
VIM-2 [12]
  rate of hydrolysis (initial velocity) in periplasm: 2.9e-07 M/s

## CO/N=C(\C(=O)N[C@@H]1C(=O)N2C(C(=O)O)=C(COC(C)=O)CS[C@H]12)c1csc(N)n1 [cefotaxime]
E. coli pBC SK(−); MHA
  MIC: 0.06 mg/L (≈ 0.132 µM)
[3]; MHA
  MIC: 16 mg/L (≈ 35.1 µM)
[4]; MHA
  MIC: 16 mg/L (≈ 35.1 µM)
[5]; MHA
  MIC: 1 mg/L (≈ 2.2 µM)
[6]
  MIC: 2 to 32 mg/L (≈ 4.39 to 70.3 µM)
[7]; MHA
  MIC: 8 mg/L (≈ 17.6 µM)
[8]; MHA
  MIC: 1 mg/L (≈ 2.2 µM)
[9]; MHA
  MIC: 16 mg/L (≈ 35.1 µM)
[10]; MHA
  MIC: 32 mg/L (≈ 70.3 µM)
